Values belong to the molecule of their own block, whether it stands above or below them.
What was measured:
[1] = human bioavailability comparison study, Tablet Formulation 10 vs co-administered single entity products; type: in vivo; settings: for Cmax / AUC(0-inf) / AUC(0-t) / concentration at 24 h: human plasma, fasted; for concentration at 24 h: read-out: C24 GM
Procedure: (§1) The blend is lubricated with magnesium stearate prior to roller compaction. Following roller compaction, the granules are further lubricated with magnesium stearate before compression on a rotary press. Tablet properties of apparent density and solid fraction are determined by gravimetric measurement of the drug product and geometric estimation of size with corresponding component powder measure of true density using helium pycnometry. The core tablets are then film coated and waxed to complete manufacture.
(§2) The reference in the study was co-administration of single entity products to achieve the equivalent total dose. In this cross-over design study all subjects were in the fasted state. Tablet Formulations 9b, and 10b were administered as Treatment C in the respective studies. Tablet Formulations 9a, and 10a were administered as Treatment B in the respective studies. The co-administration of the reference products were identified as Treatment A. After administration, blood samples were taken periodically, and the plasma concentration of the analytes, both primary compounds and metabolites, determined to generate the pharmacokinetic profiles and related specific metrics. These metrics included Cmax, AUC, and C24 (where quantifiable). Summary results from the human PK trials for Tablet Formulation 9 and Tablet Formulation 10 products are provided in Table 10 to Table 13 and Table 14 to 17, respectively. The resulting metrics were then compared in relation to the reference single entity products to assess similarity.

[2] = human bioavailability comparison study, Tablet Formulation 9 vs co-administered single entity products; type: in vivo; settings: for Cmax / AUC(0-inf) / AUC(0-t) / concentration at 24 h: human plasma, fasted; for concentration at 24 h: read-out: C24 GM
Procedure: as §1, §2

log D = type: physicochemical; settings: pH=7
[3] = human, plasma, oral, Treatment A: co-administered single entity products, equivalent total dose
[4] = human, plasma, oral, Treatment A: co-administered single entity products, equivalent total dose, read-out: AUC0-24 GM
[5] = human, plasma, oral, Treatment A: co-administered single entity products, equivalent total dose, read-out: AUC0-last GM
[6] = human, plasma, oral, Treatment B: one unit Tablet Formulation 10a (300 mg Compound I, 100 mg Compound II, 50 mg Compound III), read-out: AUC0-last GM
[7] = human, plasma, oral, Treatment B: one unit Tablet Formulation 10a
[8] = human, plasma, oral, Treatment B: one unit Tablet Formulation 10a, read-out: AUC0-24 GM
[9] = human, plasma, oral, Treatment C: one unit Tablet Formulation 10b (300 mg Compound I, 100 mg Compound II, 50 mg Compound III), read-out: AUC0-last GM
[10] = human, plasma, oral, Treatment C: one unit Tablet Formulation 10b
[11] = human, plasma, oral, Treatment C: one unit Tablet Formulation 10b, read-out: AUC0-24 GM
[12] = human, plasma, oral, Treatment B: two units Tablet Formulation 9a (450 mg Compound I, 100 mg Compound II, 50 mg Compound III), read-out: AUC0-last GM
[13] = human, plasma, oral, Treatment B: two units Tablet Formulation 9a
[14] = human, plasma, oral, Treatment B: two units Tablet Formulation 9a, read-out: AUC0-24 GM
[15] = human, plasma, oral, Treatment C: two units Tablet Formulation 9b (450 mg Compound I, 100 mg Compound II, 50 mg Compound III), read-out: AUC0-last GM
[16] = human, plasma, oral, Treatment C: two units Tablet Formulation 9b
[17] = human, plasma, oral, Treatment C: two units Tablet Formulation 9b, read-out: AUC0-24 GM
[18] = Treatment B (Tablet Formulation 10a) / Treatment A (single entities)
[19] = Treatment C (Tablet Formulation 10b) / Treatment A (single entities)
[20] = human, in vivo, Treatment A: co-administered single entity products, equivalent total dose
[21] = human, in vivo, Treatment A: co-administered single entity products, equivalent total dose, read-out: AUC0-24 GM
[22] = human, in vivo, Treatment A: co-administered single entity products, equivalent total dose, read-out: AUC0-last GM
[23] = human, in vivo, Treatment B: one unit Tablet Formulation 10a
[24] = human, in vivo, Treatment C: one unit Tablet Formulation 10b
[25] = Treatment B (Tablet Formulation 9a) / Treatment A (single entities)
[26] = Treatment C (Tablet Formulation 9b) / Treatment A (single entities)
[27] = human, in vivo, Treatment B: two units Tablet Formulation 9a
[28] = human, in vivo, Treatment C: two units Tablet Formulation 9b

SMILES: COC(=O)N[C@H](C(=O)N1CCC[C@H]1c1nc(-c2ccc3c(c2)O[C@@H](c2ccccc2)n2c-3cc3cc(-c4c[nH]c([C@@H]5CCCN5C(=O)[C@@H](NC(=O)OC)C(C)C)n4)ccc32)c[nH]1)C(C)C [Compound II, dimethyl N,N′-([(6S)-6-phenylindolo[1,2-c][1,3]benzoxazine-3,10-diyl]bis{1H-imidazole-5,2-diyl-(2S)-pyrrolidine-2,1-diyl[(2S)-3-methyl-1-oxobutane-1,2-diyl]})dicarbamate]
Cmax ([1]; Treatment C: one unit Tablet Formulation 10b): 102 nM | AUC(0-inf) [1, 3]: 1.84 µM·h | Cmax [1, 3]: 101 nM | AUC(0-t) [1, 4]: 1.12 µM·h | AUC(0-t) [1, 5]: 1.81 µM·h | concentration at 24 h [1, 3]: 28.5 nM | AUC(0-t) [1, 6]: 1.55 µM·h | AUC(0-inf) [1, 7]: 1.58 µM·h | Cmax [1, 7]: 81.8 nM | AUC(0-t) [1, 8]: 0.95 µM·h | concentration at 24 h [1, 7]: 25.1 nM | AUC(0-t) [1, 9]: 1.83 µM·h | AUC(0-inf) [1, 10]: 1.85 µM·h | AUC(0-t) [1, 11]: 1.14 µM·h | concentration at 24 h [1, 10]: 29.2 nM | Cmax ([2]; Treatment C: two units Tablet Formulation 9b): 115 nM | AUC(0-inf) [2, 3]: 2.04 µM·h | Cmax [2, 3]: 113 nM | AUC(0-t) [2, 4]: 1.21 µM·h | AUC(0-t) [2, 5]: 2.01 µM·h | concentration at 24 h [2, 3]: 32.3 nM | AUC(0-t) [2, 12]: 1.59 µM·h | AUC(0-inf) [2, 13]: 1.61 µM·h | AUC(0-t) [2, 14]: 0.938 µM·h | concentration at 24 h [2, 13]: 25.2 nM | AUC(0-t) [2, 15]: 2.35 µM·h | AUC(0-inf) [2, 16]: 2.38 µM·h | AUC(0-t) [2, 17]: 1.41 µM·h | concentration at 24 h [2, 16]: 37.4 nM

SMILES: CC(C)OC(=O)[C@@H](C)NP(=O)(OC[C@H]1O[C@@H](n2ccc(=O)[nH]c2=O)[C@](C)(Cl)[C@@H]1O)Oc1ccccc1 (stereo partly drawn) [Compound I, (2R)-isopropyl 2-(((((2R,3R,4R,5R)-4-chloro-5-(2,4-dioxo-3,4-dihydropyrimidin-1(2H)-yl)-3-hydroxy-4-methyltetrahydrofuran-2-yl)methoxy)(phenoxy)phosphoryl)amino)propanoate]
AUC0-24 B/A GM ratio [1, 18]: 0.96 | AUC0-last B/A GM ratio [1, 18]: 0.95 | AUC0-∞ B/A GM ratio [1, 18]: 0.98 | Cmax B/A GM ratio [1, 18]: 0.98 | AUC0-24 C/A GM ratio [1, 19]: 1.01 | AUC0-last C/A GM ratio [1, 19]: 1.00 | AUC0-∞ C/A GM ratio [1, 19]: 1.01 | Cmax C/A GM ratio [1, 19]: 1.18 | AUC(0-inf) [1, 20]: 1.69 µM·h | Cmax [1, 20]: 525 nM | AUC(0-t) [1, 21]: 1.65 µM·h | AUC(0-t) [1, 22]: 1.63 µM·h | AUC(0-t) ([1]; human, in vivo, Treatment B: one unit Tablet Formulation 10a (300 mg Compound I, 100 mg Compound II, 50 mg Compound III), read-out: AUC0-last GM): 1.55 µM·h | AUC(0-inf) [1, 23]: 1.65 µM·h | Cmax [1, 23]: 517 nM | AUC(0-t) ([1]; human, in vivo, Treatment B: one unit Tablet Formulation 10a, read-out: AUC0-24 GM): 1.58 µM·h | AUC(0-t) ([1]; human, in vivo, Treatment C: one unit Tablet Formulation 10b (300 mg Compound I, 100 mg Compound II, 50 mg Compound III), read-out: AUC0-last GM): 1.63 µM·h | AUC(0-inf) [1, 24]: 1.7 µM·h | Cmax [1, 24]: 618 nM | AUC(0-t) ([1]; human, in vivo, Treatment C: one unit Tablet Formulation 10b, read-out: AUC0-24 GM): 1.67 µM·h | AUC0-24 B/A GM ratio [2, 25]: 1.23 | AUC0-last B/A GM ratio [2, 25]: 1.24 | AUC0-∞ B/A GM ratio [2, 25]: 1.23 | Cmax B/A GM ratio [2, 25]: 1.44 | AUC0-24 C/A GM ratio [2, 26]: 1.37 | AUC0-last C/A GM ratio [2, 26]: 1.38 | AUC0-∞ C/A GM ratio [2, 26]: 1.36 | Cmax C/A GM ratio [2, 26]: 1.69 | AUC(0-inf) [2, 20]: 2.6 µM·h | Cmax [2, 20]: 738 nM | AUC(0-t) [2, 21]: 2.56 µM·h | AUC(0-t) [2, 22]: 2.52 µM·h | AUC(0-t) ([2]; human, in vivo, Treatment B: two units Tablet Formulation 9a (450 mg Compound I, 100 mg Compound II, 50 mg Compound III), read-out: AUC0-last GM): 3.11 µM·h | AUC(0-inf) [2, 27]: 3.2 µM·h | Cmax [2, 27]: 1060 nM | AUC(0-t) ([2]; human, in vivo, Treatment B: two units Tablet Formulation 9a, read-out: AUC0-24 GM): 3.15 µM·h | AUC(0-t) ([2]; human, in vivo, Treatment C: two units Tablet Formulation 9b (450 mg Compound I, 100 mg Compound II, 50 mg Compound III), read-out: AUC0-last GM): 3.48 µM·h | AUC(0-inf) [2, 28]: 3.54 µM·h | Cmax [2, 28]: 1250 nM | AUC(0-t) ([2]; human, in vivo, Treatment C: two units Tablet Formulation 9b, read-out: AUC0-24 GM): 3.52 µM·h

AUC0-24 B/A GM ratio [1, 18]: 0.71 | AUC0-last B/A GM ratio [1, 18]: 0.72 | AUC0-∞ B/A GM ratio [1, 18]: 0.69 | C24 B/A GM ratio [1, 18]: 0.80 | Cmax B/A GM ratio [1, 18]: 0.70 | AUC0-24 C/A GM ratio [1, 19]: 0.86 | AUC0-last C/A GM ratio [1, 19]: 0.91 | AUC0-∞ C/A GM ratio [1, 19]: 0.95 | C24 C/A GM ratio [1, 19]: 0.85 | Cmax C/A GM ratio [1, 19]: 0.91 | AUC(0-inf) [1, 3]: 0.5 µM·h | Cmax [1, 3]: 27.5 nM | AUC(0-t) [1, 4]: 0.24 µM·h | AUC(0-t) [1, 5]: 0.36 µM·h | concentration at 24 h [1, 3]: 4.85 nM | AUC(0-t) [1, 6]: 0.26 µM·h | AUC(0-inf) [1, 7]: 0.34 µM·h | Cmax [1, 7]: 19.3 nM | AUC(0-t) [1, 8]: 0.17 µM·h | concentration at 24 h [1, 7]: 3.89 nM | AUC(0-t) [1, 9]: 0.33 µM·h | AUC(0-inf) [1, 10]: 0.47 µM·h | Cmax [1, 10]: 24.9 nM | AUC(0-t) [1, 11]: 0.2 µM·h | concentration at 24 h [1, 10]: 4.11 nM | AUC0-24 B/A GM ratio [2, 25]: 0.72 | AUC0-last B/A GM ratio [2, 25]: 0.77 | AUC0-∞ B/A GM ratio [2, 25]: 0.76 | C24 B/A GM ratio [2, 25]: 0.85 | Cmax B/A GM ratio [2, 25]: 0.64 | AUC0-24 C/A GM ratio [2, 26]: 1.00 | AUC0-last C/A GM ratio [2, 26]: 0.97 | AUC0-∞ C/A GM ratio [2, 26]: 0.88 | C24 C/A GM ratio [2, 26]: 1.04 | Cmax C/A GM ratio [2, 26]: 0.89 | AUC(0-inf) [2, 3]: 0.7 µM·h | Cmax [2, 3]: 38.5 nM | AUC(0-t) [2, 4]: 0.316 µM·h | AUC(0-t) [2, 5]: 0.538 µM·h | concentration at 24 h [2, 3]: 6.38 nM | AUC(0-t) [2, 12]: 0.415 µM·h | AUC(0-inf) [2, 13]: 0.53 µM·h | Cmax [2, 13]: 24.8 nM | AUC(0-t) [2, 14]: 0.229 µM·h | concentration at 24 h [2, 13]: 5.41 nM | AUC(0-t) [2, 15]: 0.522 µM·h | AUC(0-inf) [2, 16]: 0.617 µM·h | Cmax [2, 16]: 34.1 nM | AUC(0-t) [2, 17]: 0.317 µM·h | concentration at 24 h [2, 16]: 6.63 nM | logD (log D): -3
SMILES: C=C[C@@H]1C[C@]1(NC(=O)[C@@H]1C[C@@H]2CN1C(=O)[C@H](C(C)(C)C)NC(=O)O[C@@H]1C[C@H]1CCCCCc1nc3ccc(OC)cc3nc1O2)C(=O)NS(=O)(=O)C1CC1 [Compound III, (1aR,5S,8S,10R,22aR)-N-[(1R,2S)-1-[(cyclopropylsulfonamido)carbonyl]-2-ethenylcyclopropyl]-14-methoxy-5-(2-methylpropan-2-yl)-3,6-dioxo-1,1a,3,4,5,6,9,10,18,19,20,21,22,22a-tetradecahydro-8H-7,10-methanocyclopropa[18,19][1,10,3,6]dioxadiazacyclononadecino[11,12-b]quinoxaline-8-carboxamide hydrate]
